We go through 15 molecules from PubChem BioAssay (NCI).

Several values for one entry are separate records, joined by “and”; a condition that tells them apart may be missing. Identical values can stand only once.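 Briefly, cells in 96-well plates were exposed to five compound concentrations for 48 h, and endpoints were estimated by linear interpolation. GI50 is the concentration that inhibits growth by half. TGI: total growth inhibition.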

Test systems include DLD-1 colon; HCC-2998 colon; HCT-15 colon; M14 melanoma; MDA-N; NCI-H226 lung; NCI-H460 lung; SF-268 CNS; SNB-19 CNS; T-47D breast.
What all share (test): growth of human tumour cells (NCI), 48 h

In the case of `C[C@@](O)(/C=C/[C@H]1CC=CC(=O)O1)[C@@H](C[C@@H](O)\C=C/C=C\C=C\CO)OP(=O)(O)O`, the TGI is 95.9 µM in the experiment on DLD-1 colon; 22.3 µM with HCC-2998 colon; 55.9 µM and 79.4 µM in the experiment with HCT-15 colon; 2.69 µM with M14 melanoma; 8.08 µM in the experiment with MDA-N; 18.7 µM in the experiment on NCI-H226 lung. Moreover, the TGI in the experiment on NCI-H460 lung is 63.6 µM and 78.5 µM; in the experiment on SF-268 CNS, 83.2 µM and 99.1 µM; in the experiment on SNB-19 CNS it was 92.6 µM and 184 µM; in the experiment on T-47D breast, 161 µM. For the same molecule, the GI50 in the experiment with HCT-15 colon was 11.4 µM; in the experiment with NCI-H460 lung, 14.2 µM; with SF-268 CNS, 12.2 µM; with SNB-19 CNS, 20.7 µM.
Turning to `CCOP(=O)(CC(=O)C1=C(O)C(CCCCNC(=O)OC(C)(C)C)N(Cc2ccccc2)C1=O)OCC` (stereo not drawn), the TGI with DLD-1 colon, in the experiment with HCC-2998 colon, in the experiment on M14 melanoma, with NCI-H226 lung, in the experiment on NCI-H460 lung and in the experiment with SF-268 CNS was > 100 µM each time.
`Cc1cnc(SCCN2CCN(C)CC2)nc1-c1cc2ccccc2s1`: the TGI with DLD-1 colon is 25.4 µM; with HCC-2998 colon, 26.9 µM; in the experiment on HCT-15 colon it was 24.7 µM; in the experiment with M14 melanoma it was 27.4 µM; with NCI-H226 lung, 25.3 µM; in the experiment on NCI-H460 lung, 14.6 µM.
As to `O=C(CC1C(=O)Nc2ccccc2S1(=O)=O)Nc1cccc(Cl)c1` (stereo not drawn), the TGI came to 32.7 µM in the experiment with DLD-1 colon; 32.1 µM with HCC-2998 colon; 31.5 µM with HCT-15 colon; 42.1 µM in the experiment on M14 melanoma; 35.8 µM in the experiment on NCI-H226 lung; 31.8 µM with NCI-H460 lung. Moreover, the results for the TGI in the experiment on SF-268 CNS and in the experiment on SNB-19 CNS were 30.1 µM and 46.8 µM, respectively.
With `Cc1ccc(S(=O)(=O)SCc2ccccc2)cc1`, the TGI in the experiment with DLD-1 colon is 21.7 µM; in the experiment with HCC-2998 colon, 57.4 µM; in the experiment on HCT-15 colon, 28.6 µM; in the experiment on M14 melanoma, 39.7 µM; in the experiment with NCI-H226 lung, 40.9 µM; with NCI-H460 lung it was > 69.5 µM. Moreover, the TGI in the experiment on SF-268 CNS is > 85.7 µM; in the experiment with SNB-19 CNS it was > 91.7 µM.
In the case of `CN1C(=O)C(=CN(C)c2ccccc2)C(=O)N(C)C1=O`, the TGI with DLD-1 colon, with HCC-2998 colon, in the experiment on HCT-15 colon, with M14 melanoma, in the experiment with NCI-H226 lung and in the experiment on NCI-H460 lung was > 100 µM in each case. Moreover, the TGI in the experiment with SNB-19 CNS is > 100 µM.
Consider `COC(=O)C(=O)C(CC(=O)Nc1cccc(C(F)(F)F)c1)C(=O)OC` (stereo not drawn), for which the TGI in the experiment with DLD-1 colon, in the experiment on HCC-2998 colon, with HCT-15 colon, in the experiment on M14 melanoma, in the experiment with NCI-H226 lung and in the experiment on NCI-H460 lung was > 100 µM each time. The TGI in the experiment with SF-268 CNS and in the experiment on SNB-19 CNS was > 100 µM throughout.
As for `CCN(CC)CCC(=O)/C=C/c1ccc(C)cc1`, the TGI with DLD-1 colon worked out at 21.9 µM; with HCC-2998 colon it was 32.6 µM; with HCT-15 colon, 36.3 µM; in the experiment on M14 melanoma, 26.8 µM; with NCI-H226 lung, 31.9 µM; in the experiment with NCI-H460 lung it was 38.3 µM. In addition, the TGI was 30.4 µM in the experiment on SF-268 CNS and 37.5 µM in the experiment on SNB-19 CNS.
For `O=C(NC(=O)c1cc2cc(Br)cc(Br)c2oc1=O)Oc1ccccc1`, the TGI with DLD-1 colon, with HCC-2998 colon, with HCT-15 colon, in the experiment with M14 melanoma, with NCI-H226 lung and in the experiment on NCI-H460 lung was > 100 µM in each case. The TGI in the experiment on SF-268 CNS and in the experiment on SNB-19 CNS was > 100 µM throughout.
With `O=C1N[C@H]2[C@H](O)[C@H](O)[C@@H](O)[C@H](O)[C@@H]2c2cc3c(c(O)c21)OCO3`, the GI50 was 0.282 µM and 1.94 µM with DLD-1 colon; 0.0618 µM in the experiment on HCC-2998 colon; 0.462 µM with HCT-15 colon; 0.229 µM and 0.0346 µM with M14 melanoma; 0.025 µM in the experiment on MDA-N; 0.273 µM and 0.365 µM in the experiment with NCI-H226 lung. Also, the GI50 is 0.234 µM and 0.084 µM with NCI-H460 lung; 0.269 µM and 1.36 µM with SF-268 CNS; 0.172 µM and 0.125 µM in the experiment with SNB-19 CNS. For the same molecule, the TGI in the experiment with DLD-1 colon was 0.422 µM; with HCC-2998 colon, 0.279 µM and 0.148 µM; in the experiment on MDA-N, 0.185 µM and 0.128 µM; in the experiment on NCI-H226 lung it was 1.59 µM and 0.195 µM; in the experiment with NCI-H460 lung it was 0.652 µM and 0.448 µM; in the experiment on SNB-19 CNS, 0.939 µM and 0.197 µM. For the same molecule, the TGI in the experiment with T-47D breast was determined as 0.155 µM.
Consider `O=C1c2c(c3c4ccccc4[nH]c3c3[nH]c4ccccc4c23)C(=O)N1Cc1ccccc1`, for which the TGI in the experiment with DLD-1 colon was 15.6 µM; in the experiment on HCC-2998 colon it was 16.3 µM; with HCT-15 colon, 5.91 µM; in the experiment on M14 melanoma it was 10.9 µM; in the experiment on NCI-H226 lung, 6.1 µM; in the experiment with NCI-H460 lung, 13.5 µM. Moreover, the TGI with SF-268 CNS turned out to be 14 µM; in the experiment with SNB-19 CNS, 9.02 µM.
For `COc1cc2c(cc1OC)[C@@H]([C@H](O)c1ccccc1)NCC2`, the TGI with DLD-1 colon, with HCC-2998 colon, in the experiment with HCT-15 colon, in the experiment on M14 melanoma, with NCI-H226 lung and with NCI-H460 lung was > 100 µM each time. In addition, the TGI in the experiment with SF-268 CNS and in the experiment on SNB-19 CNS was > 100 µM throughout.
Take `Clc1ccc(C2=NOC3C4CCC(C4)C23)cc1` (stereo not drawn): the TGI with DLD-1 colon, in the experiment on HCC-2998 colon, with HCT-15 colon, in the experiment with M14 melanoma, in the experiment with NCI-H226 lung and in the experiment on NCI-H460 lung was > 100 µM in each case. The TGI in the experiment on SF-268 CNS and with SNB-19 CNS was > 100 µM each time.
With `O=C1CCC2(c3ccccc3)Nc3ccc(Cl)cc3N12` (stereo not drawn), the TGI with DLD-1 colon, with HCC-2998 colon, in the experiment with HCT-15 colon, with M14 melanoma, in the experiment on NCI-H226 lung and in the experiment on NCI-H460 lung was > 100 µM in each case. For the same molecule, in the experiment with SF-268 CNS, the TGI was > 100 µM.
For `Cc1ccc2c(CC(=O)O)cc(=O)oc2c1`, the TGI in the experiment on DLD-1 colon, with HCC-2998 colon, in the experiment on HCT-15 colon, in the experiment on M14 melanoma, with NCI-H226 lung and with NCI-H460 lung was > 100 µM each time. The TGI with SF-268 CNS and with SNB-19 CNS was > 100 µM throughout.
